pEC50, pIC50: −log10 of the molar value.
How the values were obtained:
[1] = test system: Rat aortic smooth muscle cells (RSMC); assay: cGMP level measurements in ANF-stimulated cells; format: cell-based; details: 30 minutes at 37° C. with compound, then ANF (100 nM) for 10 minutes, c-GMP by scintillation proximity immunoassay
Method: Rat aortic smooth muscle cells (RSMC) prepared according to Chamley et al. in Cell Tissue Res. 177 503-522 (1977) were used between the 10th and 25th passage at confluence in 24-well culture dishes. Culture media was aspirated and replaced with PBS (0.5 ml) containing the compound tested at the appropriate concentration. After 30 minutes at 37° C., particulates guanylate cyclase was stimulated by addition of ANF (100 nM) for 10 minutes. At the end of incubation, the medium was withdrawn and two extractions were performed by addition of 65% ethanol (0.25 ml). The two ethanolic extracts were pooled and evaporated until dryness, using a Speed-vac system. c-GMP was measured after acetylation by scintillation proximity immunoassay ([…]).

[2] = test system: conscious spontaneously hypertensive rats (SHR); assay: Antihypertensive activity in rats; format: in vivo, rat; details: orally 5 mg/kg in 5% DMF and 95% olive oil, carotid artery catheter, recorded for 5 hours
Method: The hypotensive effects of compounds according to the invention as identified in table 2 were studied in conscious spontaneously hypertensive rats (SHR). The compounds were administered orally at a dose of 5 mg/kg in a mixture of 5% DMF and 95% olive oil. Blood pressure was measured from a catheter inserted in the carotid artery and recorded for 5 hours after administration. The results are expressed as Area Under the Curve (AUC from 0 to 5 hours, mmHg.hour) of the fall blood pressure over time.

human recombinant PDE V = target: T1, human recombinant PDE V (Homo sapiens, UniProt O76074); assay: Inhibitory effect on cGMP-PDE (one-step assay adapted from Wells et al.); format: biochemical; details: 0.15 μM 8-[H3]-cGMP, 30 minutes incubation, 2% DMSO
T1 construct: purchased ICOS, Seattle USA
Method: The enzyme used was a human recombinant PDE V (ICOS, Seattle USA).
Compounds of the invention were dissolved in DMSO finally present at 2% in the assay.

pEC50 [1]	melting point [°C]	pIC50 (human recombinant PDE V)	SMILES	AUC PO (fall in blood pressure over time, AUC from 0 to 5 hours) [2] [mmHg.h]
6.70			CN1CC(=O)N2[C@H](c3ccc4c(c3)OCO4)c3[nH]c4ccccc4c3C[C@@H]2C1=O [Example 95, (6R,12aR)-2,3,6,7,12,12a-Hexahydro-2-methyl-6-(3,4-methylenedioxyphenyl)-pyrazino[2′,1′:6,1]pyrido[3,4-b]indole-1,4-dione]	135
6.30	237 to 239	7.70	O=C1[C@H]2Cc3c([nH]c4ccccc34)[C@@H](c3ccc4c(c3)OCO4)N2C(=O)CN1C1CCCC1 [Example 82, (6R,12aR)-2,3,6,7,12,12a-Hexahydro-2-cyclopentyl-6-(3,4-methylenedioxyphenyl)-pyrazino[2′,1′:6,1pyrido3,4-b]indole-1,4-dione]	111

More lines, now with the values behind:

SMILES	pEC50 [1]	melting point [°C]	pIC50 (human recombinant PDE V)	AUC PO (fall in blood pressure over time, AUC from 0 to 5 hours) [2] [mmHg.h]
CC(C)N1CC(=O)N2[C@H](c3ccc4c(c3)OCO4)c3[nH]c4ccccc4c3C[C@@H]2C1=O [Example 79, (6R,12aR)-2,3,6,7,12,12a-Hexahydro-2-isopropyl-6-(3,4-methylenedioxyphenyl)-pyrazino[2′,1′:6,1]pyrido[3,4-b]indole-1,4-dione]	6.82	290 to 293	> 8.00	171
COc1ccc([C@@H]2c3[nH]c4ccccc4c3C[C@@H]3C(=O)N(C)CC(=O)N23)cc1Cl [Example 89]	> 7.00	283 to 284	8.00	117
CCCCN1CC(=O)N2C(Cc3c([nH]c4ccccc34)C2c2ccc(C)cc2)C1=O (stereo not drawn) [Example 63, Cis-2 3,6,7,12,12a-Hexahydro-2-butyl-6-(4-methylphenyl)-pyrazino[2′,1′:6,1]pyrido[3,4-b]indole-1,4-dione]	6.46	194	7.52	95
COc1ccc([C@@H]2c3[nH]c4ccccc4c3C[C@@H]3C(=O)N(CC4CC4)CC(=O)N23)cc1 [Example 84, (6R,12aR)-2,3,6,7,12,12a-Hexahydro-2-cyclopropylmethyl-6-(4-methoxyphenyl)-pyrazino[2′,1′:6.1]pyrido[3,4-b]indole-1,4-dione]	6.40	204 to 205	8.00	77
CN1CC(=O)N2[C@@H](c3ccc4c(c3)CCO4)c3[nH]c4ccccc4c3C[C@@H]2C1=O (relative stereo) [Example 36, Cis-2,3,6,7,12,12a-Hexahydro-6-(2,3-dihydrobenzo[b]furan-5-yl)-2-methyl-pyrazino[2′,1′:6,1]pyrido[3,4-b]indole-1,4-dione]	6.30	292 to 294	> 8.00	99
O=C1NCC(=O)N2[C@H](c3ccc4c(c3)OCO4)c3[nH]c4ccccc4c3C[C@H]12 [Example 101, (6R,12aR)-2,3,6,7,12,12a-Hexahydro-4-(3,4-methylenedioxyphenyl)-pyrazino[2′,1′:6,1]pyrido [3,4-b]indole-1,4-dione]	6.52	285 to 290	8.00	136

— US6369059B1, “Tetracyclic derivatives, process of preparation and use” (ICOS Corporation, priority 1994, dated 2002)
